Measured values taken from ChEMBL document CHEMBL5113495, “Discovery of novel orexin receptor antagonists using a 1,3,5-trioxazatriquinane bearing multiple effective residues (TriMER) library” (Eur J Med Chem, 2022).
Active and inactive are the calls of the source. No cut-off for these calls is given here.

Assays:
[1] = biological target: T1, Orexin/Hypocretin receptor type 1 (Homo sapiens, UniProt O43613); test: Antagonist activity at human OX1R expressed in CHO-K1 cells assessed as inhibition of orexin-A-induced increase in calcium mobilization preincubated for 15 mins followed orexin-A stimulation by Fura-2-AM dye based fluorescence assay; assay type: functional, cell-based
T1 sequence (O43613 whole entry): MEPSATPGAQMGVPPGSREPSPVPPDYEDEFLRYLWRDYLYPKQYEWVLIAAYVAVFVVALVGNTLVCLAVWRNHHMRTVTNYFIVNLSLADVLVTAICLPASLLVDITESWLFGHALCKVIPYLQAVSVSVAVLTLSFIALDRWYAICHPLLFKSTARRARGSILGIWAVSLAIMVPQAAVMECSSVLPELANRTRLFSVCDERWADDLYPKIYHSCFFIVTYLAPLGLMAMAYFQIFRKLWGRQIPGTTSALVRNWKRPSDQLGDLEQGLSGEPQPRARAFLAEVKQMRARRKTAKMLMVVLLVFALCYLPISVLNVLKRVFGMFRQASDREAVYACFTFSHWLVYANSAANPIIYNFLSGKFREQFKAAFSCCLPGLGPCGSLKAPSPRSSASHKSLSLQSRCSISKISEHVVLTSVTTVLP

[2] = biological target: T2, Orexin receptor type 2 (Homo sapiens, UniProt O43614); test: Antagonist activity at human OX2R expressed in CHO-K1 cells assessed as inhibition of orexin-A-induced increase in calcium mobilization preincubated for 15 mins followed orexin-A stimulation by Fura-2-AM dye based fluorescence assay; assay type: functional, cell-based
T2 sequence (O43614 whole entry): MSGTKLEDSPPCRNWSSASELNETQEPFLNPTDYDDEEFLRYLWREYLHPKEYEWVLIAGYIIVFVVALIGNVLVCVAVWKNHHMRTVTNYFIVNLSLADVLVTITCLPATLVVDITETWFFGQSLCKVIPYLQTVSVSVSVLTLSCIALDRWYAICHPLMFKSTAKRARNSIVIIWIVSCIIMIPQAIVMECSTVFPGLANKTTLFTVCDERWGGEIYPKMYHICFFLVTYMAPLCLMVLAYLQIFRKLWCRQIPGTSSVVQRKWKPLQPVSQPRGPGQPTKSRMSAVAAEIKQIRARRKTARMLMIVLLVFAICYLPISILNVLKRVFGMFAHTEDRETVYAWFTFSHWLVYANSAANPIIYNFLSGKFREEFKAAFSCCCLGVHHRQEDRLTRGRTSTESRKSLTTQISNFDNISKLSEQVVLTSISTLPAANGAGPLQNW

[3] = Drug concentration in C57BL/6J mouse brain at 10 mg/kg, ip measured after 0.5 hrs by LC-MS/MS analysis; assay type: ADME, organism-based; settings: in vivo
[4] = Apparent permeability across apical to basolateral side in human Caco-2 cells at pH 7.4; assay type: ADME, cell-based; settings: Caco-2, pH 7.4
[5] = Passive apparent permeability in MDCK cells; assay type: ADME, cell-based, Canis lupus familiaris; settings: dog
[6] = Metabolic stability in pooled human liver microsomes assessed as half-life […] preincubated for 5 mins followed by NADPH addition and measured upto 60 mins by HPLC-MS/MS analysis; assay type: ADME, Microsome; settings: time < 65 min
[7] = Metabolic stability in pooled human liver microsomes assessed as intrinsic clearance […] preincubated for 5 mins followed by NADPH addition and measured upto 60 mins by HPLC-MS/MS analysis; assay type: ADME, Microsome; settings: time < 65 min, read-out: CLH
[8] = tested on: Mus musculus; test: Effect on locomotor activity in ip dosed ICR mouse assessed as suppression of orexin-induced enhancement of locomotor activity pretreated with compound for 30 mins followed by orexin stimulation by infrared light beam-braking system locomotor recording system; assay type: functional, organism-based; settings: dose 3-10 mg/kg, DDE = dose-dependent effect
[9] = tested on: Mus musculus; test: Sleep inducing activity in C57BL/6J mouse assessed as decrease in total time of wakefulness during dark phase at 10 mg/kg, ip measured at 12 to 18 hrs by EEG/EMG analysis; assay type: functional, organism-based; settings: time 12-18 hrs
[10] = tested on: Mus musculus; test: Sleep inducing activity in C57BL/6J mouse assessed as increase in total time of NREM sleep during dark phase at 10 mg/kg, ip measured at 12 to 18 hrs by EEG/EMG analysis; assay type: functional, organism-based; settings: time 12-18 hrs
[11] = Apparent permeability across apical to basolateral side in human Caco-2 cells at pH 7.4 in the presence of 1% BSA; assay type: ADME, cell-based; settings: Caco-2, pH 7.4

SMILES	Ki [1] [nM]	IC50 [2] [nM]	Ki [2] [nM]	also measured
COc1ccc(C(=O)Nc2cccc([C@@]3(C)O[C@@H]4CO[C@H]5N4[C@@H]3O[C@]5(C)c3cccc(NC(=O)c4ccc(OC)cc4)c3)c2)cc1	110	–	–	–
CN(C)c1cccc(C(=O)Nc2cccc([C@@]3(C)O[C@H]4CO[C@@H]5N4[C@H]3O[C@]5(C)c3cccc(NC(=O)c4cccc(N(C)C)c4)c3)c2)c1	7.85	> 10000	–	–
COc1ccc(C(=O)Nc2cccc([C@]3(C)O[C@@H]4CO[C@H]5N4[C@@H]3O[C@@]5(C)c3cccc(NC(=O)c4ccc(OC)cc4)c3)c2)cc1	2.17	–	–	–
CN(C)c1ccc(C(=O)Nc2cccc([C@]3(C)O[C@H]4CO[C@@H]5N4[C@H]3O[C@@]5(C)c3cccc(NC(=O)c4ccc(N(C)C)cc4)c3)c2)cc1	–	> 10000	–	IC50 [1]: > 10000 nM
COc1ccc(C(=O)Nc2cccc(C3(C)OC4COC5N4C3OC5(C)c3cccc(NC(=O)c4ccc(OC)cc4)c3)c2)cc1 (mixture of isomers)	11.7	–	–	–
CN(C)c1ccc(C(=O)Nc2cccc([C@@]3(C)O[C@H]4CO[C@@H]5N4[C@H]3O[C@]5(C)c3cccc(NC(=O)c4ccc(N(C)C)cc4)c3)c2)cc1	3.88	> 10000	–	–
COc1ccc(C(=O)Nc2cccc(C3(C)OC4COC5N4C3OC5(C)c3cccc(NC(=O)c4ccc(OC)cc4)c3)c2)cc1 (racemic)	4.93	–	–	–
C[C@@]1(c2cccc(NS(=O)(=O)c3ccccc3)c2)O[C@H]2CO[C@@H]3N2[C@H]1O[C@]3(C)c1ccc(NS(=O)(=O)c2ccccc2)cc1	–	–	222	IC50 [1]: > 10000 nM
CC(C)(C)OC(=O)Nc1cccc([C@]2(C)O[C@H]3CO[C@@H]4N3[C@H]2O[C@@]4(C)c2cccc(NC(=O)OC(C)(C)C)c2)c1	34.2	–	180	–
COc1ccc(C(=O)Nc2cccc([C@@]3(C)O[C@H]4CO[C@@H]5N4[C@H]3O[C@]5(C)c3cccc(NC(=O)c4ccc(OC)cc4)c3)c2)cc1	1.87	–	–	Ct [3]: 33.9 pmol/g; Papp A→B [4]: 11.9 ×10⁻⁶ cm/s; Papp [5]: > 10 ×10⁻⁶ cm/s; half-life [6]: 39 min; microsomal CLint [7]: 183 µL/min/mg; Activity [8]: Dde
COc1ccc(C(=O)Nc2cccc([C@]3(C)O[C@H]4CO[C@@H]5N4[C@H]3O[C@@]5(C)c3cccc(NC(=O)c4ccc(OC)cc4)c3)c2)cc1	3.99	–	–	Ct [3]: 54.7 pmol/g; Activity [9]: Active; Activity [10]: Active; Papp A→B [11]: 1.4 ×10⁻⁶ cm/s; half-life [6]: 38 min; microsomal CLint [7]: 184 µL/min/mg
CN(C)c1cccc([C@]2(C)O[C@H]3CO[C@@H]4N3[C@H]2O[C@@]4(C)c2cccc(N(C)C)c2)c1	–	–	655	IC50 [1]: > 10000 nM

Now from value to molecule, other results behind:

Ki [1] [nM]	IC50 [2] [nM]	Ki [2] [nM]	SMILES	also measured
25.4	> 10000	–	C[C@]1(c2cccc(NC(=O)c3ccccc3)c2)O[C@H]2CO[C@@H]3N2[C@H]1O[C@]3(C)c1cccc(NC(=O)c2ccccc2)c1	–
7.66	–	5.38	COc1cccc(C(=O)Nc2cccc([C@]3(C)O[C@@H]4N5[C@H](CO[C@H]53)O[C@@]4(C)c3cccc(NC(=O)c4ccccc4)c3)c2)c1	–
2.86	> 10000	–	COc1cccc(C(=O)Nc2cccc([C@@]3(C)O[C@H]4CO[C@@H]5N4[C@H]3O[C@]5(C)c3cccc(NC(=O)c4cccc(OC)c4)c3)c2)c1	–
32.8	–	–	COc1cccc(C(=O)Nc2cccc([C@@]3(C)O[C@H]4CO[C@@H]5N4[C@H]3O[C@]5(C)c3cccc(NC(=O)c4ccccc4OC)c3)c2)c1	–
18.3	> 10000	–	C[C@]1(c2cccc(NC(=O)c3ccccn3)c2)O[C@H]2CO[C@@H]3N2[C@H]1O[C@]3(C)c1cccc(NC(=O)c2ccccn2)c1	–
23.4	–	15.1	C[C@@]1(c2cccc(NC(=O)c3ccccc3)c2)O[C@H]2CO[C@@H]3N2[C@H]1O[C@@]3(C)c1cccc(NC(=O)c2ccccc2)c1	–
691	–	261	C[C@@]1(c2cccc(NC(=O)c3cccnc3)c2)O[C@H]2CO[C@@H]3N2[C@H]1O[C@@]3(C)c1cccc(NC(=O)c2cccnc2)c1	–
104	> 10000	–	C[C@]1(c2cccc(NC(=O)c3ccncc3)c2)O[C@H]2CO[C@@H]3N2[C@H]1O[C@]3(C)c1cccc(NC(=O)c2ccncc2)c1	–
–	> 10000	–	CN(C)c1cccc(C(=O)Nc2cccc([C@]3(C)O[C@H]4CO[C@@H]5N4[C@H]3O[C@@]5(C)c3cccc(NC(=O)c4cccc(N(C)C)c4)c3)c2)c1	IC50 [1]: > 10000 nM
18	–	56	COc1ccccc1C(=O)Nc1cccc([C@]2(C)O[C@@H]3N4[C@H](CO[C@H]42)O[C@@]3(C)c2cccc(NC(=O)c3ccccc3)c2)c1	–
634	> 10000	–	CN(C)c1ccccc1C(=O)Nc1cccc([C@@]2(C)O[C@H]3CO[C@@H]4N3[C@H]2O[C@]4(C)c2cccc(NC(=O)c3ccccc3N(C)C)c2)c1	–
14.9	–	69.6	C[C@@]1(c2cccc(NC(=O)c3ccccn3)c2)O[C@H]2CO[C@@H]3N2[C@H]1O[C@@]3(C)c1cccc(NC(=O)c2ccccn2)c1	–
–	–	179	C[C@@]1(c2cccc(NC(=O)c3ccncc3)c2)O[C@H]2CO[C@@H]3N2[C@H]1O[C@@]3(C)c1cccc(NC(=O)c2ccncc2)c1	IC50 [1]: > 10000 nM
52	> 10000	–	C[C@]1(c2cccc(NC(=O)c3cccnc3)c2)O[C@H]2CO[C@@H]3N2[C@H]1O[C@]3(C)c1cccc(NC(=O)c2cccnc2)c1	–
–	> 10000	–	CN(C)c1ccccc1C(=O)Nc1cccc([C@]2(C)O[C@H]3CO[C@@H]4N3[C@H]2O[C@@]4(C)c2cccc(NC(=O)c3ccccc3N(C)C)c2)c1	IC50 [1]: > 10000 nM
